Series [1] has as its system human hepatocarcinoma cells (Huh7). The series is described as follows: fluorescence staining of lipid droplets in hepatocytes treated with the polypeptide. Type of series: cell-based. Particulars: Huh7, 400 μM oleic acid, peptide 10 μM, 20 μM; FIG. 4.
Series [2] has the same test system. Particulars: Huh7, 400 μM oleic acid, peptide 10 μM, 20 μM; FIGS. 3A-3B.

Ends that are not written are not given here.

With “MEPGGARLRLQRTEGLGGERERQPCGDGNTETHRAPDLVQWYGRKKRRQRRRK-OH [polypeptide]”, the “generation of intracellular lipid droplets (LD)” value in series [1] was “can inhibit”. In series [2], the “level of total cholesterol (TC) in hepatocytes” value is on record as “can reduce” and the “level of triglyceride (TG) in hepatocytes” value is “can reduce”.
